Measured values from PubChem BioAssay AID1918938 (Molecular Pharmacology Branch, DTP, NCI, 2023).

Tested on: 556581-035-R-J1-PDC complex spheroid viability
Experiment: Anticancer human tumor 556581-035-R-J1-PDC patient-derived ovarian carcinoma cell line growth inhibition
Settings: for IC50: curve of first compound; for viability, T/C: stronger effect = lower value
Procedure, shortened: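 Multicellular complex spheroids of tumor cells with human endothelial cells (HUVEC) and mesenchymal stem cells; the LSD1 inhibitor iadademstat was combined with standard-of-care or investigational agents. Top concentration at or near clinical Cmax, half-log dilutions; final DMSO ≤0.25%.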

[1] = second compound 0.1 µM, first compound 0.000316 µM
[2] = second compound 0.1 µM, first compound 0.001 µM
[3] = second compound 0.1 µM, first compound 0.00316 µM
[4] = second compound 0.1 µM, first compound 0.01 µM
[5] = second compound 0.1 µM, first compound 0.0316 µM
[6] = second compound 0.1 µM, first compound 0.1 µM
[7] = second compound 0.316 µM, first compound 0.000316 µM
[8] = second compound 0.316 µM, first compound 0.001 µM
[9] = second compound 0.316 µM, first compound 0.00316 µM
[10] = second compound 0.316 µM, first compound 0.01 µM
[11] = second compound 0.316 µM, first compound 0.0316 µM
[12] = second compound 0.316 µM, first compound 0.1 µM
[13] = second compound 1 µM, first compound 0.000316 µM
[14] = second compound 1 µM, first compound 0.001 µM
[15] = second compound 1 µM, first compound 0.00316 µM
[16] = second compound 1 µM, first compound 0.01 µM
[17] = second compound 1 µM, first compound 0.0316 µM
[18] = second compound 1 µM, first compound 0.1 µM
[19] = second compound 3.16 µM, first compound 0.000316 µM
[20] = second compound 3.16 µM, first compound 0.001 µM
[21] = second compound 3.16 µM, first compound 0.00316 µM
[22] = second compound 3.16 µM, first compound 0.01 µM
[23] = second compound 3.16 µM, first compound 0.0316 µM
[24] = second compound 3.16 µM, first compound 0.1 µM
[25] = second compound 10 µM, first compound 0.000316 µM
[26] = second compound 10 µM, first compound 0.001 µM
[27] = second compound 10 µM, first compound 0.00316 µM
[28] = second compound 10 µM, first compound 0.01 µM
[29] = second compound 10 µM, first compound 0.0316 µM
[30] = second compound 10 µM, first compound 0.1 µM
[31] = second compound 0.1 µM, first compound 0.00949 µM
[32] = second compound 0.1 µM, first compound 0.03 µM
[33] = second compound 0.1 µM, first compound 0.0949 µM
[34] = second compound 0.1 µM, first compound 0.3 µM
[35] = second compound 0.1 µM, first compound 0.949 µM
[36] = second compound 0.1 µM, first compound 3 µM
[37] = second compound 0.316 µM, first compound 0.00949 µM
[38] = second compound 0.316 µM, first compound 0.03 µM
[39] = second compound 0.316 µM, first compound 0.0949 µM
[40] = second compound 0.316 µM, first compound 0.3 µM
[41] = second compound 0.316 µM, first compound 0.949 µM
[42] = second compound 0.316 µM, first compound 3 µM
[43] = second compound 1 µM, first compound 0.00949 µM
[44] = second compound 1 µM, first compound 0.03 µM
[45] = second compound 1 µM, first compound 0.0949 µM
[46] = second compound 1 µM, first compound 0.3 µM
[47] = second compound 1 µM, first compound 0.949 µM
[48] = second compound 1 µM, first compound 3 µM
[49] = second compound 3.16 µM, first compound 0.00949 µM
[50] = second compound 3.16 µM, first compound 0.03 µM
[51] = second compound 3.16 µM, first compound 0.0949 µM
[52] = second compound 3.16 µM, first compound 0.3 µM
[53] = second compound 3.16 µM, first compound 0.949 µM
[54] = second compound 3.16 µM, first compound 3 µM
[55] = second compound 10 µM, first compound 0.00949 µM
[56] = second compound 10 µM, first compound 0.03 µM
[57] = second compound 10 µM, first compound 0.0949 µM
[58] = second compound 10 µM, first compound 0.3 µM
[59] = second compound 10 µM, first compound 0.949 µM
[60] = second compound 10 µM, first compound 3 µM
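Further: spheroids exposed to agents for seven days.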
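Wherever viability, T/C is given: 100% = DMSO vehicle control wells.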

## CC(C)CC(NC(=O)CNC(=O)c1cc(Cl)ccc1Cl)B1OC(=O)CC(CC(=O)O)(C(=O)O)O1 (stereo not given) + NC1CCC(NC2CC2c2ccccc2)CC1
Second compound 0.1 µM
  IC50: 4.01 nM
Second compound 0.316 µM
  IC50: 4.35 nM
Second compound 1 µM
  IC50: 4.48 nM
Second compound 3.16 µM
  IC50: 4.6 nM
Second compound 10 µM
  IC50: 3.25 nM
[1]
  viability, T/C: 90.7%
[2]
  viability, T/C: 99.5%
[3]
  viability, T/C: 62.3%
[4]
  viability, T/C: 3.38%
[5]
  viability, T/C: 0.24%
[6]
  viability, T/C: 0.3%
[7]
  viability, T/C: 95.5%
[8]
  viability, T/C: 93.4%
[9]
  viability, T/C: 67.6%
[10]
  viability, T/C: 4.37%
[11]
  viability, T/C: 0.84%
[12]
  viability, T/C: 0.84%
[13]
  viability, T/C: 86.2%
[14]
  viability, T/C: 88%
[15]
  viability, T/C: 69.7%
[16]
  viability, T/C: 4.47%
[17]
  viability, T/C: 0.33%
[18]
  viability, T/C: 0.17%
[19]
  viability, T/C: 91.3%
[20]
  viability, T/C: 86%
[21]
  viability, T/C: 72.4%
[22]
  viability, T/C: 3.59%
[23]
  viability, T/C: 0.33%
[24]
  viability, T/C: 0.6%
[25]
  viability, T/C: 72.3%
[26]
  viability, T/C: 90.1%
[27]
  viability, T/C: 51.2%
[28]
  viability, T/C: 2.53%
[29]
  viability, T/C: 0.48%
[30]
  viability, T/C: 0.7%

## COc1cc(Nc2ncc3c(n2)-c2ccc(Cl)cc2C(c2c(F)cccc2OC)=NC3)ccc1C(=O)O + NC1CCC(NC2CC2c2ccccc2)CC1
Second compound 0.1 µM
  IC50: 360 nM
Second compound 0.316 µM
  IC50: 307 nM
Second compound 1 µM
  IC50: 253 nM
Second compound 3.16 µM
  IC50: 213 nM
Second compound 10 µM
  IC50: 143 nM
[3]
  viability, T/C: 67.5%
[4]
  viability, T/C: 59.8%
[5]
  viability, T/C: 58.4%
[6]
  viability, T/C: 56.1%
Second compound 0.1 µM, first compound 0.316 µM
  viability, T/C: 54.9%
Second compound 0.1 µM, first compound 1 µM
  viability, T/C: 38.6%
[9]
  viability, T/C: 65.1%
[10]
  viability, T/C: 67.8%
[11]
  viability, T/C: 63.9%
[12]
  viability, T/C: 55%
Second compound 0.316 µM, first compound 0.316 µM
  viability, T/C: 50.1%
Second compound 0.316 µM, first compound 1 µM
  viability, T/C: 39.3%
[15]
  viability, T/C: 62.3%
[16]
  viability, T/C: 60.6%
[17]
  viability, T/C: 57%
[18]
  viability, T/C: 57.2%
Second compound 1 µM, first compound 0.316 µM
  viability, T/C: 46.9%
Second compound 1 µM, first compound 1 µM
  viability, T/C: 41.4%
[21]
  viability, T/C: 66.5%
[22]
  viability, T/C: 66.4%
[23]
  viability, T/C: 61.4%
[24]
  viability, T/C: 49%
Second compound 3.16 µM, first compound 0.316 µM
  viability, T/C: 53%
Second compound 3.16 µM, first compound 1 µM
  viability, T/C: 35.3%
[27]
  viability, T/C: 58.6%
[28]
  viability, T/C: 54.6%
[29]
  viability, T/C: 58.5%
[30]
  viability, T/C: 50.3%
Second compound 10 µM, first compound 0.316 µM
  viability, T/C: 46%
Second compound 10 µM, first compound 1 µM
  viability, T/C: 36.8%

## Cn1ncnc1C1c2n[nH]c(=O)c3cc(F)cc(c23)NC1c1ccc(F)cc1 (stereo not given) + NC1CCC(NC2CC2c2ccccc2)CC1
Second compound 0.1 µM
  IC50: > 100 nM
Second compound 0.316 µM
  IC50: > 100 nM
Second compound 1 µM
  IC50: > 100 nM
Second compound 3.16 µM
  IC50: > 100 nM
Second compound 10 µM
  IC50: > 100 nM
[1]
  viability, T/C: 97%
[2]
  viability, T/C: 105%
[3]
  viability, T/C: 92.3%
[4]
  viability, T/C: 91.2%
[5]
  viability, T/C: 94%
[6]
  viability, T/C: 85.4%
[7]
  viability, T/C: 100%
[8]
  viability, T/C: 94.7%
[9]
  viability, T/C: 99.6%
[10]
  viability, T/C: 91.6%
[11]
  viability, T/C: 87.4%
[12]
  viability, T/C: 91.9%
[13]
  viability, T/C: 91%
[14]
  viability, T/C: 92.2%
[15]
  viability, T/C: 94.1%
[16]
  viability, T/C: 101%
[17]
  viability, T/C: 80.6%
[18]
  viability, T/C: 92.1%
[19]
  viability, T/C: 87.1%
[20]
  viability, T/C: 87.2%
[21]
  viability, T/C: 89.3%
[22]
  viability, T/C: 79.5%
[23]
  viability, T/C: 84.9%
[24]
  viability, T/C: 80.8%
[25]
  viability, T/C: 73.9%
[26]
  viability, T/C: 77.8%
[27]
  viability, T/C: 76.1%
[28]
  viability, T/C: 80.8%
[29]
  viability, T/C: 73.5%
[30]
  viability, T/C: 71.5%

## NS(=O)(=O)OCC1CC(n2ccc3c(NC4CCc5ccccc54)ncnc32)CC1O (stereo not given) + NC1CCC(NC2CC2c2ccccc2)CC1
Second compound 0.1 µM
  IC50: > 3000 nM
Second compound 0.316 µM
  IC50: > 3000 nM
Second compound 1 µM
  IC50: 2370 nM
Second compound 3.16 µM
  IC50: 1500 nM
Second compound 10 µM
  IC50: 545 nM
[31]
  viability, T/C: 117%
[32]
  viability, T/C: 122%
[33]
  viability, T/C: 124%
[34]
  viability, T/C: 91.3%
[35]
  viability, T/C: 86.6%
[36]
  viability, T/C: 58.4%
[37]
  viability, T/C: 119%
[38]
  viability, T/C: 112%
[39]
  viability, T/C: 123%
[40]
  viability, T/C: 99.8%
[41]
  viability, T/C: 85.7%
[42]
  viability, T/C: 50.4%
[43]
  viability, T/C: 99%
[44]
  viability, T/C: 115%
[45]
  viability, T/C: 121%
[46]
  viability, T/C: 92.2%
[47]
  viability, T/C: 74.3%
[48]
  viability, T/C: 43.7%
[49]
  viability, T/C: 103%
[50]
  viability, T/C: 106%
[51]
  viability, T/C: 110%
[52]
  viability, T/C: 84.8%
[53]
  viability, T/C: 65.9%
[54]
  viability, T/C: 28.8%
[55]
  viability, T/C: 86.7%
[56]
  viability, T/C: 86.1%
[57]
  viability, T/C: 83.4%
[58]
  viability, T/C: 62.1%
[59]
  viability, T/C: 37.9%
[60]
  viability, T/C: 15.2%

## O=C(C=Cc1cccc(S(=O)(=O)Nc2ccccc2)c1)NO + NC1CCC(NC2CC2c2ccccc2)CC1
Second compound 0.1 µM
  IC50: 108 nM
Second compound 0.316 µM
  IC50: 87 nM
Second compound 1 µM
  IC50: 76.3 nM
Second compound 3.16 µM
  IC50: 92.8 nM
Second compound 10 µM
  IC50: 39.6 nM
[31]
  viability, T/C: 85.6%
[32]
  viability, T/C: 78.4%
[33]
  viability, T/C: 51.1%
[34]
  viability, T/C: 26.1%
[35]
  viability, T/C: 1.81%
[36]
  viability, T/C: 0.24%
[37]
  viability, T/C: 87.7%
[38]
  viability, T/C: 74.3%
[39]
  viability, T/C: 42.9%
[40]
  viability, T/C: 31.7%
[41]
  viability, T/C: 3.05%
[42]
  viability, T/C: 0.34%
[43]
  viability, T/C: 97.2%
[44]
  viability, T/C: 65.7%
[45]
  viability, T/C: 50.4%
[46]
  viability, T/C: 24.6%
[47]
  viability, T/C: 2.56%
[48]
  viability, T/C: 0.21%
[49]
  viability, T/C: 77.9%
[50]
  viability, T/C: 73.1%
[51]
  viability, T/C: 47.9%
[52]
  viability, T/C: 22%
[53]
  viability, T/C: 2.44%
[54]
  viability, T/C: 0.16%
[55]
  viability, T/C: 74.2%
[56]
  viability, T/C: 51.7%
[57]
  viability, T/C: 37.6%
[58]
  viability, T/C: 23%
[59]
  viability, T/C: 1.28%
[60]
  viability, T/C: 0.28%
